Patent US20130210821A1, “Methods for Treating Obesity” (priority 2010, published 2013)
Where two headings read alike, the source gives them in different places.

Experiments:
hMetAP1 = hMetAP1 (Homo sapiens, UniProt P53582); test: MetAP1 enzyme assay; format: biochemical
HFF = HFF inhibition (selectivity); format: cell-based, human
HUVEC = HUVEC inhibition (selectivity); format: cell-based, human
hMetAP2 = hMetAP2 (Homo sapiens, UniProt P50579); test: MetAP2 enzyme assay; format: biochemical
[1] = Co2+ as metal ion, Table 2, read-out: hMetAP1 Co^2+ IC50
[2] = Mn2+ as metal ion, Table 2, read-out: hMetAP1 Mn^2+ IC50
[3] = Co2+ as metal ion, Table 2, read-out: hMetAP2 Co^2+ IC50
[4] = Mn2+ as metal ion, Table 2, read-out: hMetAP2 Mn^2+ IC50
[5] = Co2+ as metal ion, Table 1, read-out: hMetAP1 CO^2+ IC50
[6] = Mn2+ as metal ion, Table 1, read-out: hMetAP1 Mn^2+ IC50
[7] = Co2+ as metal ion, Table 1, read-out: hMetAP2 CO^2+ IC50
[8] = Mn2+ as metal ion, Table 1, read-out: hMetAP2 Mn^2+ IC50

Sequence of hMetAP2 (P50579 whole entry): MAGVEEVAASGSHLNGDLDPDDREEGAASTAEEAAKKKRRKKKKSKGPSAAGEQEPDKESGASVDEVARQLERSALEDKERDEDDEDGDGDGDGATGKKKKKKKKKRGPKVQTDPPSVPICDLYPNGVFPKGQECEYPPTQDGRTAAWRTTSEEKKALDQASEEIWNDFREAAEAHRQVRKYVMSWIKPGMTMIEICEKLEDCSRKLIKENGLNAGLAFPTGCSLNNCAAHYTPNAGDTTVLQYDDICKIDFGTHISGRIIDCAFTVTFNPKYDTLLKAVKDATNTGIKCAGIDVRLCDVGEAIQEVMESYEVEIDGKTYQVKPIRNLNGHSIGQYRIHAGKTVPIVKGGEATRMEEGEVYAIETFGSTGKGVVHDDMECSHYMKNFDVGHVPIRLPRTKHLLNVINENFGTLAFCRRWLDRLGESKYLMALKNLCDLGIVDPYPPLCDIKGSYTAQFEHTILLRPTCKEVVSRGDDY

SMILES	IC50 (hMetAP1; [1]) [µM]	IC50 (hMetAP1; [2]) [µM]	IC50 (HFF; Table 2) [µM]	IC50 (HUVEC; Table 2) [µM]	IC50 (hMetAP2; [3]) [µM]	IC50 (hMetAP2; [4]) [µM]	IC50 (hMetAP1; [5]) [µM]	IC50 (hMetAP1; [6]) [µM]	IC50 (HFF; Homo sapiens, Table 1) [µM]	IC50 (HUVEC; Homo sapiens, Table 1) [µM]	IC50 (hMetAP2; [8]) [µM]	other results
O=C(Nc1cc(Cl)ccc1Cl)Oc1c(Cl)cc(Cl)c2cccnc12 [Entry 4b]	> 50	> 50	3	0.11	> 50	0.9	–	–	–	–	–	–
Oc1c(CN2CCOCC2)ccc2cccnc12 [Entry 2c]	–	–	–	–	–	–	> 50	> 50	9.8	33.3	15.2	IC50 (hMetAP2; [7]): > 50 µM
C=CCOc1ccc(Cl)c2cccnc12 [Entry 3a]	–	–	–	–	–	–	–	–	> 50	> 50	–	–
Oc1c(CN2CCCCC2)cc(Cl)c2cccnc12 [Entry 2b]	–	–	–	–	–	–	> 50	> 50	–	–	–	–
CN1CCN(Cc2cc(Cl)c3cccnc3c2O)CC1 [Entry 2e]	–	–	–	–	–	–	–	–	–	–	–	IC50 (HFF; Table 1): 15 µM; IC50 (HUVEC; Table 1): 9.6 µM
O=C(Nc1cc(Cl)c(Cl)cc1Cl)Oc1c(Cl)cc(Cl)c2cccnc12 [Entry 4a]	> 50	> 50	4.9	1.3	> 50	2.6	–	–	–	–	–	–
OCCN(CCO)Cc1cc(Cl)c2cccnc2c1O [Entry 2a]	–	–	–	–	–	–	–	–	0.8	10.7	28	–
O=C(Nc1cc(Cl)ccc1Cl)Oc1ccc(Cl)c2cccnc12 [Entry 4c]	> 50	12.6	8	1.2	2.2	0.07	–	–	–	–	–	–
OCCOc1ccc(Cl)c2cccnc12 [Entry 3b]	–	–	–	–	–	–	–	–	> 50	> 50	–	IC50 (hMetAP1): > 50 µM; IC50 (hMetAP1; read-out: hMetAP1 CO^2+ IC50, Co2+ as metal ion, Table 1): > 50 µM; IC50 (hMetAP2): > 50 µM; IC50 (hMetAP2; read-out: hMetAP2 CO^2+ IC50, Co2+ as metal ion, Table 1): > 50 µM
Oc1c(C(c2ccccc2)N2CCOCC2)cc(Cl)c2cccnc12 (stereo not drawn) [Entry 2f]	–	–	–	–	–	–	14	> 50	19.2	8.6	0.33	IC50 (hMetAP2; [7]): 8 µM
